According to patent publication US9597316B2, “Indole compounds for use in treating inflammation and cancer” (BIOVENTURES LLC, priority 2012, dated 2017):

Assays:
MOLT-4 (Leukemia) = assay: five dose-response growth inhibition/cytotoxicity, MOLT-4; type: cell-based, human; settings: for CC50: read-out: LC50 (the source's name)
Procedure: (§1) The preliminary evaluation of compounds 3a-z was carried out at a single dose of 10 μM, against a panel of 60 human tumor cell lines, according to the procedure described by Rubinstein et al., Natl. Cancer. […] The human tumor cell line panel included leukemia, non-small cell lung, colon, central nervous system (CNS), melanoma, ovarian, renal, prostate, and breast cancer cell lines.
(§2) Dose-response curves were created by plotting cytotoxic effect against the log10 of the drug concentration for each cell line. Cytotoxic effects of each compound were determined as GI50 and LC50 values, which represent the molar drug concentration for causing 50% growth inhibition, and the concentration that kills 50% of the cells, respectively.

HCT-116 (Colon Cancer) = assay: five dose-response growth inhibition/cytotoxicity, HCT-116; type: cell-based, human; settings: for CC50: read-out: LC50 (the source's name)
Procedure: as §1, §2

CCRF-CEM (Leukemia) = assay: five dose-response growth inhibition/cytotoxicity, CCRF-CEM; type: cell-based, human; settings: for CC50: read-out: LC50 (the source's name)
Procedure: as §1, §2

SR (Leukemia) = assay: five dose-response growth inhibition/cytotoxicity, SR; type: cell-based, human; settings: for CC50: read-out: LC50 (the source's name)
Procedure: as §1, §2

K-562 (Leukemia) = assay: five dose-response growth inhibition/cytotoxicity, K-562; type: cell-based, human; settings: for CC50: read-out: LC50 (the source's name)
Procedure: as §1, §2

SF-539 (CNS Cancer) = assay: five dose-response growth inhibition/cytotoxicity, SF-539; type: cell-based, human; settings: for CC50: read-out: LC50 (the source's name)
Procedure: as §1, §2

OVCAR-3 (Ovarian Cancer) = assay: five dose-response growth inhibition/cytotoxicity, OVCAR-3; type: cell-based, human; settings: for CC50: read-out: LC50 (the source's name)
Procedure: as §1, §2

HCT-15 (Colon Cancer) = assay: five dose-response growth inhibition/cytotoxicity, HCT-15; type: cell-based, human; settings: for CC50: read-out: LC50 (the source's name)
Procedure: as §1, §2

HL-60(TB) (Leukemia) = settings: for CC50: read-out: LC50
Procedure: as §1, §2

MDA-MB-435 (Melanoma) = assay: five dose-response growth inhibition/cytotoxicity, MDA-MB-435; type: cell-based, human; settings: for CC50: read-out: LC50 (the source's name)
Procedure: as §1, §2

U251 (CNS Cancer) = assay: five dose-response growth inhibition/cytotoxicity, U251; type: cell-based, human; settings: for CC50: read-out: LC50 (the source's name)
Procedure: as §1, §2

[1] = test system: HOP-92 non-small cell lung cancer; assay: five dose-response growth inhibition/cytotoxicity, HOP-92; type: cell-based, human; settings: for CC50: read-out: LC50 (the source's name)
Procedure: as §1, §2

M14 (Melanoma) = assay: five dose-response growth inhibition/cytotoxicity, M14; type: cell-based, human; settings: for CC50: read-out: LC50 (the source's name)
Procedure: as §1, §2

LOX IMVI (Melanoma) = assay: five dose-response growth inhibition/cytotoxicity, LOX IMVI; type: cell-based, human; settings: for CC50: read-out: LC50 (the source's name)
Procedure: as §1, §2

[2] = test system: leukemia cell lines in the panel; assay: five dose-response growth inhibition, leukemia cell lines in the panel; type: cell-based, human; settings: all four leukemia cell lines in the panel; read-out: GI50 values in the range
Procedure: as §1, §2

[3] = test system: NCI/ADR-RES (Ovarian Cancer); assay: five dose-response growth inhibition/cytotoxicity, NCI/ADR-RES; type: cell-based, human; settings: for CC50: read-out: LC50 (the source's name)
Procedure: as §1, §2

[4] = test system: HOP-62 (Non-Small Cell Lung Cancer); assay: five dose-response growth inhibition/cytotoxicity, HOP-62; type: cell-based, human; settings: for CC50: read-out: LC50 (the source's name)
Procedure: as §1, §2

[5] = five dose-response growth inhibition/cytotoxicity, UO-31; type: cell-based, human; settings: for CC50: read-out: LC50 (the source's name)
Procedure: as §1, §2

[6] = test system: panel of 60 human tumor cell lines; assay: single dose (10 μM) evaluation against panel of 60 human tumor cell lines; type: cell-based; settings: any of the human cancer cell lines in the 60 cell panel
Procedure: as §1

[7] = test system: three melanoma cell lines; assay: five dose-response growth inhibition, melanoma cell lines; type: cell-based, human; settings: read-out: GI50 values in the range
Procedure: as §1, §2

KM-12 (Colon Cancer) = settings: for CC50: read-out: LC50
SF-268 (CNS Cancer) = assay: five dose-response growth inhibition/cytotoxicity, SF-268; type: cell-based, human; settings: for CC50: read-out: LC50 (the source's name)
Procedure: as §1, §2

SK-MEL-5 (Melanoma) = assay: five dose-response growth inhibition/cytotoxicity, SK-MEL-5; type: cell-based, human; settings: for CC50: read-out: LC50 (the source's name)
Procedure: as §1, §2

[8] = test system: DU-145 (Prostrate Cancer); assay: five dose-response growth inhibition/cytotoxicity, DU-145; type: cell-based, human; settings: for CC50: read-out: LC50 (the source's name)
Procedure: as §1, §2

UACC-62 (Melanoma) = assay: five dose-response growth inhibition/cytotoxicity, UACC-62; type: cell-based, human; settings: for CC50: read-out: LC50 (the source's name)
Procedure: as §1, §2

[9] = in water; cited from earlier work

| SMILES | GI50 (HCT-116 (Colon Cancer)) [µM] | CC50 (HCT-116 (Colon Cancer)) [µM] | GI50 (CCRF-CEM (Leukemia)) [µM] | CC50 (CCRF-CEM (Leukemia)) [µM] | GI50 (SR (Leukemia)) [nM] | CC50 (SR (Leukemia)) [µM] | GI50 (K-562 (Leukemia)) [µM] | CC50 (K-562 (Leukemia)) [µM] | GI50 (SF-539 (CNS Cancer)) [nM] | CC50 (SF-539 (CNS Cancer)) [µM] | GI50 (OVCAR-3 (Ovarian Cancer)) [nM] | CC50 (OVCAR-3 (Ovarian Cancer)) [µM] | GI50 (HCT-15 (Colon Cancer)) [µM] | CC50 (HCT-15 (Colon Cancer)) [µM] | GI50 (HL-60(TB) (Leukemia)) [µM] | CC50 (HL-60(TB) (Leukemia)) [µM] | GI50 (MDA-MB-435 (Melanoma); MDA-MB-435) [nM] | CC50 (MDA-MB-435 (Melanoma); MDA-MB-435) [µM] | GI50 (U251 (CNS Cancer)) [µM] | CC50 (U251 (CNS Cancer)) [µM] | further results |
| --- | --- | --- | --- | --- | --- | --- | --- | --- | --- | --- | --- | --- | --- | --- | --- | --- | --- | --- | --- | --- | --- |
| O=C1NC(=S)NC(=O)C1=Cc1cn(C(=O)c2cccc3ccccc23)c2ccccc12 [Compound 3t] | 2.9 | > 100 | 3.35 | > 100 | 2740 | 92.3 | 3.71 | > 100 | 3680 | 58.6 | 2460 | 46.2 | 3.6 | > 100 | 3.36 | > 100 | 1910 | 9.23 | 3.58 | 50.7 | GI50 (MOLT-4 (Leukemia)): 3.49 µM; CC50 (MOLT-4 (Leukemia)): 79 µM; GI50 [1]: 1300 nM; CC50 [1]: 44.8 µM; GI50 (M14 (Melanoma)): 3220 nM; CC50 (M14 (Melanoma)): > 100 µM; GI50 (LOX IMVI (Melanoma)): 3.59 µM; CC50 (LOX IMVI (Melanoma)): 55.6 µM; GI50 [2]: 2.74 to 3.71 µM; GI50 [3]: 2.59 µM; CC50 [3]: > 100 µM; GI50 [4]: 1300 nM; CC50 [4]: 44.8 µM; GI50 [5]: 3.93 µM; CC50 [5]: > 100 µM |
| COc1ccc2c(c1)c(C=C1C(=O)NC(=S)NC1=O)cn2C(=O)c1ccc2ccccc2c1 [Compound 3z] | – | – | – | – | – | – | – | – | – | – | – | – | – | – | – | – | – | – | – | – | cytotoxic potency against the 60 cell panel [6]: not identified as potent cytotoxic agents |
| COc1ccc2c(c1)c(C=C1C(=O)NC(=S)NC1=O)cn2C(=O)c1cccc2ccccc12 [Compound 3w] | 3.35 | > 100 | 3.31 | > 100 | 3320 | > 100 | 3.52 | > 100 | 2300 | > 100 | 2380 | 20.9 | 3.1 | > 100 | 3.47 | > 100 | 2010 | 12 | 3.23 | > 100 | GI50 (MOLT-4 (Leukemia)): 3.95 µM; CC50 (MOLT-4 (Leukemia)): > 100 µM; GI50 [7]: 1910 to 3800 nM; GI50 [1]: 1090 nM; CC50 [1]: ≥ 100 µM; GI50 (M14 (Melanoma)): 1910 nM; CC50 (M14 (Melanoma)): > 100 µM; GI50 (LOX IMVI (Melanoma)): 3.8 µM; CC50 (LOX IMVI (Melanoma)): > 100 µM; GI50 [2]: 3.31 to 3.95 µM; GI50 [3]: 3.14 µM; CC50 [3]: > 100 µM; GI50 [4]: 1090 nM; CC50 [4]: > 100 µM; GI50 [5]: 3.72 µM; CC50 [5]: > 100 µM |
| COc1ccc(C(=O)n2cc(C=C3C(=O)NC(=S)NC3=O)c3cc(OC)ccc32)cc1 [Compound 3k] | 1.95 | ≥ 50 | 2.23 | > 50 | 1450 | 39.4 | 2.55 | > 50 | 2560 | > 50 | 1260 | ≥ 50 | 1.8 | ≥ 50 | 3.91 | > 50 | 850 | 3.86 | 1.93 | > 50 | GI50 (KM-12 (Colon Cancer)): 1990 nM; CC50 (KM-12 (Colon Cancer)): ≥ 50 µM; GI50 (SF-268 (CNS Cancer)): 2.65 µM; CC50 (SF-268 (CNS Cancer)): > 50 µM; GI50 (SK-MEL-5 (Melanoma)): 2310 nM; CC50 (SK-MEL-5 (Melanoma)): > 50 µM; GI50 [8]: 2410 nM; CC50 [8]: > 50 µM; GI50 (MDA-MB-435 (Melanoma); melanoma MDA-MB-435): 850 nM; GI50 (M14 (Melanoma)): 2030 nM; CC50 (M14 (Melanoma)): > 50 µM; GI50 (UACC-62 (Melanoma)): 2330 nM; CC50 (UACC-62 (Melanoma)): > 50 µM; GI50 (LOX IMVI (Melanoma)): 1.86 µM; CC50 (LOX IMVI (Melanoma)): ≥ 50 µM; GI50 [2]: 1.45 to 3.91 µM; GI50 [3]: 2.91 µM; CC50 [3]: > 50 µM; GI50 [4]: 3120 nM; CC50 [4]: > 50 µM |
| O=C1NC(=S)NC(=O)C1=Cc1cn(C(=O)c2ccc3ccccc3c2)c2ccccc12 [Compound 3x] | – | – | – | – | – | – | – | – | – | – | – | – | – | – | – | – | – | – | – | – | cytotoxic potency against the 60 cell panel [6]: not identified as potent cytotoxic agents |
| COc1ccc2c(c1)c(C=C1C(=O)NC(=S)NC1=O)cn2C(=O)c1ccccc1Br [Compound 3s] | 3.76 | > 100 | 4 | > 100 | 2550 | > 100 | 3.8 | > 100 | 3000 | 57.8 | 2770 | 33.1 | 3.83 | 89.9 | 3.24 | > 100 | 1770 | 8.43 | 3.09 | 42.1 | GI50 (KM-12 (Colon Cancer)): 3870 nM; CC50 (KM-12 (Colon Cancer)): 51.9 µM; GI50 (SF-268 (CNS Cancer)): 3.86 µM; CC50 (SF-268 (CNS Cancer)): 52.2 µM; GI50 (SK-MEL-5 (Melanoma)): 3470 nM; CC50 (SK-MEL-5 (Melanoma)): > 50 µM; GI50 [8]: 3010 nM; CC50 [8]: 53.6 µM; GI50 (M14 (Melanoma)): 3520 nM; CC50 (M14 (Melanoma)): > 100 µM; GI50 (UACC-62 (Melanoma)): 3380 nM; CC50 (UACC-62 (Melanoma)): 39.6 µM; GI50 (LOX IMVI (Melanoma)): 2.92 µM; CC50 (LOX IMVI (Melanoma)): 47.9 µM; GI50 [2]: 2.55 to 4 µM; GI50 [3]: 3.23 µM; CC50 [3]: > 100 µM; GI50 [4]: 3590 nM; CC50 [4]: 64.3 µM |
| O=C1CC(=O)NC(=S)N1 [2-Thiobarbituric acid] | – | – | – | – | – | – | – | – | – | – | – | – | – | – | – | – | – | – | – | – | pKa [9]: 2.1 |
